{"source": "patent US11395821B2", "about": "“Treatment of EGFR-driven cancer with fewer side effects” (G1 Therapeutics, Inc., priority 2017, dated 2022)", "key": {"[1]": {"tested_on": "H1975 (EGFR^L858R/T790M NSCLC Model)", "test": "Example 3: Compound IV added to afatinib after resistance in H1975 tumor bearing mice", "type": "in vivo", "experimental": "EGFRL858R/T790M NSCLC model (H1975) tumor bearing mice were treated with daily oral doses of vehicle or afatinib (20 mg/kg). Once tumors became resistant to afatinib (˜D18), Compound IV (100 mg/kg) was added to the treatment regimen. Tumors were measured […]. Data is plotted to compare tumor growth in each cohort during the treatment. The x-axis is days of treatment measured in time and the y-axis is tumor volume measured in mm^3.\nCompound IV in combination with the EGFR-TKI afatinib was tested in an EGFR^L858R/T790M NSCLC model to determine the ability of the combination to reverse afatinib resistance. H1975 (EGFR^L858R/T790M NSCLC Model) tumor bearing mice were treated daily with 20 mg/kg of afatinib. Once tumors became resistant to afatinib (about D18), Compound IV (100 mg/kg) was added to the treatment regimen. Tumors were measured twice a week for 40 days. Data is plotted to compare tumor growth in each cohort during treatment."}, "[2]": {"tested_on": "EGFR^ex20ins PDX NSCLC tumor fragments (LU0387, CrownBio)", "test": "Example 5: Compound IV +/- osimertinib in EGFR ex20ins PDX model", "type": "in vivo, BALB/c nude mice", "details": "once daily oral gavage", "from_the_text": "The x-axis is days from initiation measured in time and the y-axis is mean tumor volume measured in mm^3.\nTumors continued to be measured until they reached tumor burden (>3000 mm3)."}}, "note": "Entries after “also recorded” stand apart in the source; their conditions may differ.", "data": [{"molecule": "CC(C)N1CCN(c2ccc(Nc3ncc4cc5n(c4n3)C3(CCCCC3)CNC5=O)nc2)CC1", "note": "[Compound IV]", "values": [{"measurement": "acquired resistance to afatinib (tumor volume)", "setting": "[1]; afatinib 20 mg/kg daily, Compound IV 100 mg/kg added at about D18, 40 days", "result": "reverses acquired resistance to afatinib"}, {"measurement": "decrease of tumor volume, combination vs Compound IV alone and afatinib alone", "setting": "[1]; as worded in Example 3", "result": "more effective at decreasing tumor volume"}, {"measurement": "afatinib efficacy and time to resistance (tumor volume)", "setting": "[1]; as worded in Example 3: Compound IV 50 or 100 mg/kg in combination with afatinib", "result": "increased the afatinib efficacy and extended the time to resistance"}, {"measurement": "tumor growth vs vehicle, combination", "setting": "[2]; Compound IV 100 mg/kg + osimertinib 10 mg/kg", "result": "significant tumor growth delay; also recorded: delays tumor growth"}, {"measurement": "tumor growth vs vehicle, single agent", "setting": "[2]; 17 days, Compound IV 100 mg/kg or osimertinib 10 mg/kg alone", "result": "did not cause an effect"}]}]}
